SMILES strings stand for the structures. In brackets after ≈: the same amount, converted by molar mass.

The conditions of this data set: buffer; pH 7.4; 200.0 µM.
With `CCCSCCCNC(=O)Cn1c(=O)c2cccn2c2ccccc21`, the solubility (kinetic) (in general, solubility judged after dilution from a stock solution rather than from solid) came out at 7.7 µg/mL (≈ 21.5 µM).
Turning to `O=C1N=c2ccccc2=C1c1sc(Nc2cccc(O)c2)nc1O`, the kinetic solubility is 0.7 µg/mL (≈ 2.07 µM).
On to `CN1C(=O)N(C)c2ccc(Br)c3cccc1c23`, for which the solubility (kinetic) was below 0.3 µg/mL.
Consider `CC(C)c1ccc(NC(=S)N2CCCC2)cc1`, for which the solubility (kinetic) is above 37.3 µg/mL.
The compound `O=C(O)c1nn(-c2ccccc2C(F)(F)F)cc1O` returned a kinetic solubility above 40.8 µg/mL.
Under `Cc1cc(C(=O)OCC(=O)NC2CC2)ccc1[N+](=O)[O-]` stands 15.5 µg/mL (≈ 55.7 µM); under `CCCn1cc(C(=O)OCC)c(=O)c2cc(F)c(F)cc21`, 34.9 µg/mL (≈ 118 µM).
The compound `CN1C(=O)NC(c2cccc([N+](=O)[O-])c2)C2=C1CCCC2=O` (configuration not stated) returned a kinetic solubility above 45.2 µg/mL.
The compound `OC(CNC1CCCCC1)C(F)(F)F` (configuration not stated) gave a kinetic solubility above 31.7 µg/mL.
Under `COC(=O)c1cc(CSc2ncnc3sccc23)oc1C` stands 4.3 µg/mL (≈ 13.4 µM).
For `COc1ccc2[nH]c(C)c(C(=O)CN(C)CC3OCCO3)c2c1`, the solubility (kinetic) turned out to be 45.9 µg/mL (≈ 144 µM).
In turn, `O=C(O)COCC(=O)NC1CCN(Cc2ccccc2)CC1` gave a kinetic solubility above 46 µg/mL.
Consider `CCn1c(O)c(C#N)c(C)cc1=O`, for which the kinetic solubility is above 26.7 µg/mL.
As to `CC(C)N1CCN(c2ccc(S(=O)(=O)N3CCOCC3)cn2)CC1`, the kinetic solubility is above 53.2 µg/mL.
Under `Cl.O=C(NCCCn1ccnc1)c1ccc(F)cc1` stands above 42.6 µg/mL; under `N#CSC(c1ccccc1)c1nc2ccccc2[nH]c1=O` (configuration not stated), 26.9 µg/mL (≈ 91.7 µM).
Regarding `Clc1ccccc1Nc1nc(-c2ccncc2)nc2ccccc12`, the solubility (kinetic) was determined as 0.8 µg/mL (≈ 2.4 µM).
As to `CCN(CC)S(=O)(=O)c1ccc(Cl)c(NC2=NCCCCC2)c1`, the kinetic solubility was determined as 32.9 µg/mL (≈ 91.9 µM).
In turn, `c1cncc(-c2nc3ccccc3s2)c1` yielded a solubility (kinetic) of 22.7 µg/mL (≈ 107 µM).
Turning to `CCc1c(C)nc(SC/C=C/c2ccccc2)[nH]c1=O`, the solubility (kinetic) was 1.4 µg/mL (≈ 4.89 µM).
`CCc1cccc(CC)c1C(OC(C)=O)c1cccnc1` (configuration not stated) gave a kinetic solubility of 30.7 µg/mL (≈ 108 µM). This solubility kinetic is about 22-fold higher than that of the compound before.
`O=C(CCc1ccc(S(=O)(=O)N2CCOCC2)cc1)Nc1ccc(F)cc1[N+](=O)[O-]` displayed a solubility (kinetic) of 14 µg/mL (≈ 32 µM).
`O=C1NC2(CCCC2)C(=O)N1Cc1cc(=O)n2ccsc2n1` returned a solubility (kinetic) above 47.8 µg/mL.
As for `NC(=O)C1(c2ccccc2)CCC(=O)N1c1ccccc1` (configuration not stated), the kinetic solubility was above 42 µg/mL.
With `COc1cccc(-n2c(-c3ccccc3)c[nH]c2=S)c1`, the kinetic solubility was determined as 7.8 µg/mL (≈ 27.6 µM).
Next, `Oc1ccccc1Nc1nc(-c2ccccc2O)nc2ccccc12`: below 0.2 µg/mL; `Cc1cccc(Nc2cc(=O)n(C)c(=O)[nH]2)c1`: above 34.7 µg/mL; `O=C(Cc1ccccc1[N+](=O)[O-])Nc1ccc2c(c1)OCO2`: 14.6 µg/mL (≈ 48.6 µM).
In turn, `CCOC(=O)Cc1nc2nc(C)cc(C)n2n1` displayed a kinetic solubility above 35.1 µg/mL.
Compound `CCCCn1c(=O)[nH]c2nc3cc(NC(C)=O)ccc3nc2c1=O` returned a solubility (kinetic) of 2.3 µg/mL (≈ 7.03 µM).
For `Br.Cc1ccc(C(=O)Cn2c(=N)n(N)c3ccccc32)cc1`, the solubility (kinetic) was above 54.2 µg/mL.
On to `CCC1(C)Cc2nc(Cl)c(C#N)cc2CO1` (configuration not stated), for which the kinetic solubility worked out at 34.2 µg/mL (≈ 144 µM).
`NS(=O)(=O)c1cccc(NC(=O)c2ccc(S(=O)(=O)N3CCCCCC3)cc2)c1` showed a kinetic solubility of 7.1 µg/mL (≈ 16.2 µM).
`COc1c(C=O)cc2c3c1CCCN3CCC2` displayed a solubility (kinetic) of 29.7 µg/mL (≈ 128 µM).
Compound `COC1=C/C(=C/c2c(O)c(C#N)c3ccccn23)C=CC1=O` showed a kinetic solubility of 17.5 µg/mL (≈ 59.9 µM).
The compound `COc1ccc2nc(C)cc(NCc3ccc(F)cc3)c2c1` came in with a solubility (kinetic) above 44.5 µg/mL.
Regarding `COC(=O)c1cccc(NC(=O)CSCc2ccccc2)c1`, the solubility (kinetic) was 35.6 µg/mL (≈ 113 µM).
As to `COc1ccc(CNC(=S)NCc2ccc(F)cc2)cc1OC`, the kinetic solubility was above 50.2 µg/mL.
In turn, `COc1cccc(OC)c1C(=O)Nc1ccc2nc(C)c(C)nc2c1` registered a kinetic solubility of 4.5 µg/mL (≈ 13.3 µM).
In turn, `CNC(=O)c1cc(C(=O)c2ccc(C(F)(F)F)cc2)c[nH]1` had a solubility (kinetic) of 1.8 µg/mL (≈ 6.08 µM). Compared with the last compound, the solubility kinetic is about 2.5-fold lower.
The compound `CCS(=O)c1scc(-c2ccc(Cl)cc2)c1C#N` (configuration not stated) had a kinetic solubility of 20.9 µg/mL (≈ 70.7 µM).
`Cc1cccc(OCc2nc(-c3ccc(Br)o3)no2)c1` showed a solubility (kinetic) of 1 µg/mL (≈ 2.98 µM).
In turn, `CC(C)Cn1c(=O)c2c(nc3n2CCS3)n(C)c1=O` registered a solubility (kinetic) above 42.1 µg/mL.
Next, `N=c1oc2ccccc2cc1C(=O)Nc1cccc(F)c1`: 0.3 µg/mL (≈ 1.06 µM).
In turn, `CCCNc1nc2ccccc2c(=O)[nH]1` displayed a kinetic solubility above 30.5 µg/mL.
`O=C(COC(=O)c1ccc(O)cc1)NCCC1=CCCCC1` showed a kinetic solubility above 45.5 µg/mL.
`CC1CC(C)CN(C(=O)COC(=O)c2ccc(N3CCCC3=O)cc2)C1` (configuration not stated): the kinetic solubility is above 53.8 µg/mL.
Under `CN1C(=O)c2ccc(C(=O)NCc3ccccn3)cc2C1=O` stands above 44.3 µg/mL.
On to `Clc1ccc(-c2nc(C3CCCCC3)no2)cc1`, for which the kinetic solubility is below 0.3 µg/mL.
`CC1(C)CC(=O)C2=C(C1)Nc1ccccc1S2` had a solubility (kinetic) of 3 µg/mL (≈ 12.2 µM).
Turning to `CC1(CCl)CN1S(=O)(=O)c1ccccc1` (configuration not stated), the kinetic solubility amounted to 30.8 µg/mL (≈ 125 µM). Compared with the last compound, the solubility kinetic is about 10-fold higher.
The compound `CSc1ncc(Cl)c(C(=O)NCc2cccnc2)n1` gave a solubility (kinetic) above 44.2 µg/mL.
